Measured values as given in patent publication US8192949B2, “Microaggregates including endothelial cells” (priority 2005, dated 2012).

What was measured:
[1] = test system: capillary-associated cells (mostly endothelial cells) in neuroendocrine (pulmonary carcinoid) tumor microclusters; experiment: In situ microcapillary viability assay (ISMCVA), fast green/H&E dye exclusion on tumor microclusters; format: cell-based, human; details: microclusters cultured for 96 hours in presence of bevacizumab; FIGS. 3B and 4B
Procedure: (§1) Solid tumors are minced to pieces smaller than 1 mm (small enough to be aspirated into a standard disposable 10 ml pipette) with high quality curved surgical scissors. Medium in which said tumors may have been transported is reserved, along with the supernatant from the tissue mince. Scissor-minced tumor pieces are digested with collagenase/DNase in RPMI-1640 containing antibiotics and 10% fetal calf serum. Specimens are digested in 50 ml disposable polypropylene centrifuge tubes, assisted by gentle mixing with plastic-coated, magnetic stirring bars over a stirring plate. Specimens are thusly mixed until complete gross digestion has taken place—typically about 2-3 hours for a 1-3 gram specimen. […]
(§2) Viable microaggregates are enriched from medium containing a mixture of microclusters that exist in the minced, digested tissue along with single cells, normal cells, red blood cells, dead cells, and debris by means of “quickspins.” Quickspins consist of repeated very brief centrifugations at 50-500×g, in which the centrifuge tube is first mixed by moderate hand-shaking, placed in a standard, room temperature, preparatory centrifuge, and then accelerated to the desired speed (determined for each centrifuge by empiric trials) and then immediately turned off once the centrifuge has reached the desired speed and then allowed to coast to a stop. […]

[2] = test system: tumor cells in neuroendocrine (pulmonary carcinoid) tumor microclusters; experiment: as above; format: cell-based, human; details: microclusters cultured for 96 hours in presence of bevacizumab; FIGS. 3B and 4B
Procedure: as §1, §2

Substance: bevacizumab
- viability of capillary-associated cells (fast green staining) [1]: most capillary-associated cells are dead
- viability of tumor cells (fast green / H/E staining) [2]: tumor cells remain viable
